Patent publication US20240150377A1, “MODULATORS OF CYSTIC FIBROSIS TRANSMEMBRANE CONDUCTANCE REGULATOR” (VERTEX PHARMACEUTICALS INCORPORATED, priority 2020, published 2024)
pEC50: −log10 of the molar value.

Legend:
[1] = biological target: T1, CFTR (Homo sapiens, UniProt P13569); assay: Membrane potential dye, Enteroid Assay A; assay type: cell-based; details: for Ent. A Max Activity: chloride transport as % of triple combination control (Enteroid Assay A); for pEC50: human enteroid cells, 18-24 hours, acute 10 μM forskolin and 300 nM ivacaftor, read-out: Ent. A EC50
T1 sequence (P13569 with tags, fused parts or gaps DEL508-508): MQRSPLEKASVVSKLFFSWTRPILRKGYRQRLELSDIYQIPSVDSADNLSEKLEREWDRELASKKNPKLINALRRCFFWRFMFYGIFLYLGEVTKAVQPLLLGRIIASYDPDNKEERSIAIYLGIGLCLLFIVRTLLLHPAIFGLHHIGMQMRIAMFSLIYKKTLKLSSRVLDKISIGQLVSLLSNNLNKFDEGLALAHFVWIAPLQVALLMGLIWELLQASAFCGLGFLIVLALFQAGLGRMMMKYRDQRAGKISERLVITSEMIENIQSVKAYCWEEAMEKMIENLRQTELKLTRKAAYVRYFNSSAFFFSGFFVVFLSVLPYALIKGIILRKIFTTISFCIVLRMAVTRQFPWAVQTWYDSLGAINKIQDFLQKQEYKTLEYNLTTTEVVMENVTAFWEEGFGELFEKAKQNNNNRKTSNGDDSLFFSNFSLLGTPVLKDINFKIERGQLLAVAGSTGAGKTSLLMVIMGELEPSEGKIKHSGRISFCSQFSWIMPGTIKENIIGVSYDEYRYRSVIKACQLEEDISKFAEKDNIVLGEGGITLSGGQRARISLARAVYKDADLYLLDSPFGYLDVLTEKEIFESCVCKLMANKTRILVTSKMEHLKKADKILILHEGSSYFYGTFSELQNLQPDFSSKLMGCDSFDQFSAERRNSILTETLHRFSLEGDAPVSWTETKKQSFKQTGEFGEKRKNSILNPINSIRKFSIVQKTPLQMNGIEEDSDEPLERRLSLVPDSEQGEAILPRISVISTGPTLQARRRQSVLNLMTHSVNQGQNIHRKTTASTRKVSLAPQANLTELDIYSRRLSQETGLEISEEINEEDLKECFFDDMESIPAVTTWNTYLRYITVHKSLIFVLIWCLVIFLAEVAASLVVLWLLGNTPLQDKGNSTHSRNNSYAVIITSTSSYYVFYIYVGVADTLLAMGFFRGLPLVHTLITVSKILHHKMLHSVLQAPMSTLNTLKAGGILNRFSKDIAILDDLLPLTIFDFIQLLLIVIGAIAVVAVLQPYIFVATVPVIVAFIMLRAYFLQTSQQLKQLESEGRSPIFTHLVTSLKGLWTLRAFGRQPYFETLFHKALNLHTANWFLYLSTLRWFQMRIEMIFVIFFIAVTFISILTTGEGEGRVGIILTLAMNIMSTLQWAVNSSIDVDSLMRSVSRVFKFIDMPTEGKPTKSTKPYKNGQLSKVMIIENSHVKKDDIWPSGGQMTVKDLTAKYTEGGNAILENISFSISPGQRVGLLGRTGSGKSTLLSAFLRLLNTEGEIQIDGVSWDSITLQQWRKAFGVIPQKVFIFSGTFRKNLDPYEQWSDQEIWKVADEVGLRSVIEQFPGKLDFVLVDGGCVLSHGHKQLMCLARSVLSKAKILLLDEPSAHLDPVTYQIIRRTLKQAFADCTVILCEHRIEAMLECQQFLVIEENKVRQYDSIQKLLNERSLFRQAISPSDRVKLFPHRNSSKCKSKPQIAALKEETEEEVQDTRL
Procedure, shortened: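 % Activity: chloride transport relative to a 3 μM/3 μM corrector pair plus 300 nM acute potentiator control. Primary human enteroid cells, 18-24 h compound exposure at 37 °C; membrane potential dye (methyl oxonol) fluorescence over 15 min after forskolin (10 μM)/IBMX (100 μM)/Compound III (300 nM) stimulation in chloride-free buffer.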

[2] = biological target: T1, CFTR; assay: Membrane potential dye, Enteroid Assay B; assay type: cell-based; details: for Ent. B Max Activity: chloride transport as % of triple combination control (Enteroid Assay B); for pEC50: read-out: Ent. B EC50
Procedure, shortened: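 Fluorescence read over 15 min after chloride-free stimulation (10 μM forskolin, 100 μM IBMX, 300 nM Compound III) gave chloride transport, reported as % activity versus a triple-corrector/potentiator control. Beforehand, human enteroid cells had 18-24 h compound exposure at 37° C and 25 min methyl oxonol dye loading at room temperature.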

[3] = Table 6, human enteroid cells, 18-24 hours, acute 10 μM forskolin and 300 nM ivacaftor
[4] = Table 7, human enteroid cells, 18-24 hours, acute 10 μM forskolin and 300 nM ivacaftor
[5] = Table 8, human enteroid cells, 18-24 hours, acute 10 μM forskolin and 300 nM ivacaftor

Ent. B Max Activity ([2]; Table 8) | pEC50 [2, 5] | Ent. B Max Activity (%) ([2]; Table 9) | pEC50 ([2]; Table 9) | SMILES | also measured
 |  |  |  | Cc1cccc(C)c1-c1cc2nc(n1)NS(=O)(=O)c1cccc(c1)C(=O)N(Cc1ncccn1)[C@H](CC(C)C)CO2 [Compound 77, (11R)-6-(2,6-Dimethylphenyl)-11-isobutyl-2,2-dioxo-12-(pyrimidin-2-ylmethyl)-9-oxa-2λ^6-thia-3,5,12,19-tetrazatricyclo[12.3.1.14,8]nonadeca-1(18),4(19),5,7,14,16-hexaen-13-one] | Ent. A Max Activity ([1]; Table 6): +++ (+++ is >60%); pEC50 ([1]; Table 6): > 6.00; Ent. B Max Activity ([2]; Table 6): +++ (+++ is >60%); pEC50 [2, 3]: > 6.00
 |  |  |  | COCCN1C(=O)c2cccc(c2)S(=O)(=O)Nc2nc(cc(-c3c(C)cccc3C)n2)OC[C@H]1CC(C)C [Compound 363] | Ent. A Max Activity ([1]; Table 6): +++ (+++ is >60%); pEC50 ([1]; Table 6): > 6.00; Ent. B Max Activity ([2]; Table 6): +++ (+++ is >60%); pEC50 [2, 3]: > 6.00
 |  |  |  | Cc1cccc(C)c1-c1cc2nc(n1)NS(=O)(=O)c1cccc(c1)C(=O)N(Cc1ccncc1)[C@H](CC(C)C)CO2 [Compound 1106] | Ent. A Max Activity ([1]; Table 7): +++ (+++ is >60%); pEC50 ([1]; Table 7): 5.52 to 6.00; Ent. B Max Activity ([2]; Table 7): ++ (++ is 30-60%); pEC50 [2, 4]: 5.52 to 6.00
+++ (+++ is >60%) | > 6.00 |  |  | COCCCN1C(=O)c2cccc(c2)S(=O)(=O)Nc2nc(cc(-c3c(C)cccc3C)n2)OC[C@H]1CC(C)C [Compound 980] | 
 |  | +++ (+++ is >600%) | > 6.00 | Cc1cccc(C)c1-c1cc2nc(n1)NS(=O)(=O)c1cccc(c1)C(=O)N(Cc1nc3ccccc3o1)[C@H](CC(C)(C)C)CO2 [Compound 803] | 
+++ (+++ is >60%) | > 6.00 |  |  | Cc1cccc(C)c1-c1cc2nc(n1)NS(=O)(=O)c1cc(n(C)n1)C(=O)N(Cc1ccccn1)[C@H](CC(C)(C)C)CO2 [Compound 930] | 
+ (+ is <30%) | > 6.00 |  |  | Cc1cccc(C)c1-c1cc2nc(n1)NS(=O)(=O)c1cc(nn1C)C(=O)N(Cc1ccncn1)[C@H](CC(C)(C)C)CO2 [Compound 932] | 
 |  |  |  | Cc1cccc(C)c1-c1cc2nc(n1)NS(=O)(=O)c1cccc(c1)C(=O)N(CCN(C)C)[C@H](CC(C)C)CO2 [Compound 412] | Ent. B Max Activity ([2]; Table 7): +++ (+++ is >60%); pEC50 [2, 4]: > 6.00
+++ (+++ is >60%) | 5.52 to 6.00 |  |  | Cc1cccc(C)c1-c1cc2nc(n1)NS(=O)(=O)c1cccc(c1)C(=O)N(Cc1ncccn1)[C@H](CC(C)(C)O)CO2 [Compound 658] | 
 |  | +++ (+++ is >600%) | > 6.00 | Cc1cccc(C)c1-c1cc2nc(n1)NS(=O)(=O)c1cccc(c1)C(=O)N(Cc1ccc(C#CC(C)(C)C#N)cc1)[C@H](CC(C)(C)C)CO2 [Compound 790] | 
 |  | +++ (+++ is >600%) | > 6.00 | Cc1cccc(C)c1-c1cc2nc(n1)NS(=O)(=O)c1cccc(c1)C(=O)N(Cc1cccc(N)n1)[C@H](CC(C)(C)C)CO2 [Compound 125, (11R)-12-[(6-Amino-2-pyridyl)methyl]-6-(2,6-dimethylphenyl)-11-(2,2-dimethylpropyl)-2,2-dioxo-9-oxa-2λ^6-thia-3,5,12,19-tetrazatricyclo[12.3.1.14,8]nonadeca-1(18),4(19),5,7,14,16-hexaen-13-one] | 
 |  | +++ (+++ is >600%) | > 6.00 | Cc1cccc(C)c1-c1cc2nc(n1)NS(=O)(=O)c1cccc(c1)C(=O)N(Cc1ncc(Cl)cn1)[C@H](CC(C)(C)C)CO2 [Compound 805] | 
+++ (+++ is >60%) | > 6.00 |  |  | Cc1cccc(C)c1-c1cc2nc(n1)NS(=O)(=O)c1cc(n(C)n1)C(=O)N(Cc1ccc(C(C)(C)O)cc1)[C@H](CC(C)(C)C)CO2 [Compound 923] | 
++ (++ is 30-60%) | > 6.00 |  |  | Cc1cccc(C)c1-c1cc2nc(n1)NS(=O)(=O)c1cccc(c1)C(=O)N(Cc1ccc(O)nn1)[C@H](CC(C)(C)C)CO2 [Compound 1097] | 
+ (+ is <30%) | 5.52 to 6.00 |  |  | Cc1cccc(C)c1-c1cc2nc(n1)NS(=O)(=O)c1cc(nn1C)C(=O)N(Cc1cccnn1)[C@H](CC(C)(C)C)CO2 [Compound 931] | 
 |  | +++ (+++ is >600%) | > 6.00 | Cc1cccc(C)c1-c1cc2nc(n1)NS(=O)(=O)c1cccc(c1)C(=O)N(CC13CC(C(C)(C)O)(C1)C3)[C@H](CC(C)(C)C)CO2 [Compound 69, (11R)-6-(2,6-Dimethylphenyl)-11-(2,2-dimethylpropyl)-12-[[3-(1-hydroxy-1-methyl-ethyl)-1-bicyclo[1.1.1]pentanyl]methyl]-2,2-dioxo-9-oxa-2λ^6-thia-3,5,12,19-tetrazatricyclo[12.3.1.14,8]nonadeca-1(18),4(19),5,7,14,16-hexaen-13-one] | 

Ent. B Max Activity ([2]; Table 8) | pEC50 [2, 5] | Ent. B Max Activity (%) ([2]; Table 9) | pEC50 ([2]; Table 9) | SMILES | also measured
++ (++ is 30-60%) | > 6.00 |  |  | Cc1cccc(C)c1-c1cc2nc(n1)NS(=O)(=O)c1cc(nn1C)C(=O)N(Cc1ccccn1)[C@H](CC(C)(C)C)CO2 [Compound 934] | 
+++ (+++ is >60%) | > 6.00 |  |  | Cc1cccc(C)c1-c1cc2nc(n1)NS(=O)(=O)c1cccc(c1)C(=O)N(C[C@H]1C[C@@H](C(C)(C)O)C1)[C@H](CC(C)(C)C)CO2 [Compound 335] | 
++ (++ is 30-60%) | 5.52 to 6.00 |  |  | Cc1cccc(C)c1-c1cc2nc(n1)NS(=O)(=O)c1cccc(c1)C(=O)N(Cc1ncccn1)[C@H](CCC(C)(C)O)CO2 [Compound 659] | 
+++ (+++ is >60%) | > 6.00 |  |  | Cc1cccc(C)c1-c1cc2nc(n1)NS(=O)(=O)c1cccc(c1)C(=O)N(Cc1ccc(NC(=O)OC(C)C)cc1)[C@H](CC(C)(C)C)CO2 [Compound 508] | 
 |  | +++ (+++ is >600%) | > 6.00 | Cc1cccc(C)c1-c1cc2nc(n1)NS(=O)(=O)c1cccc(c1)C(=O)N(Cc1ncccc1N)[C@H](CC(C)(C)C)CO2 [Compound 390] | 
 |  | +++ (+++ is >600%) | > 6.00 | Cc1cccc(C)c1-c1cc2nc(n1)NS(=O)(=O)c1cccc(c1)C(=O)N(Cc1ccc(CC(=O)N(C)C)cc1)[C@H](CC(C)(C)C)CO2 [Compound 845] | 
+++ (+++ is >60%) | > 6.00 |  |  | Cc1cccc(C)c1-c1cc2nc(n1)NS(=O)(=O)c1cccc(c1)C(=O)N(Cc1ccc(CC(C)(C)O)cc1)[C@H](CC(C)(C)C)CO2 [Compound 848] | 
 |  | +++ (+++ is >600%) | > 6.00 | Cc1cccc(C)c1-c1cc2nc(n1)NS(=O)(=O)c1cccc(c1)C(=O)N(Cc1ccc3c(c1)NC(=O)C3)[C@H](CC(C)(C)C)CO2 [Compound 799] | 
+++ (+++ is >60%) | > 6.00 |  |  | Cc1cccc(C)c1-c1cc2nc(n1)NS(=O)(=O)c1cccc(c1)C(=O)N(CCCC(C)(C)O)[C@H](CC(C)(C)C)CO2 [Compound 1093] | 
 |  | ++ (++ is 30-60%) | > 6.00 | Cc1cccc(C)c1-c1cc2nc(n1)NS(=O)(=O)c1cccc(c1)C(=O)N(CCC1(C(F)(F)F)CC1)[C@@H]1CN(C3CC4(CCCCC4)C3)C[C@H]1O2 [Compound 1190, (3R,7R)-19-(2,6-Dimethylphenyl)-5-{spiro[3.5]nonan-2-yl}-8-{2-[1-(trifluoromethyl)cyclopropyl]ethyl}-2-oxa-15λ^6-thia-5,8,16,18,21-pentaazatetracyclo[15.3.1.110,14.03,7]docosa-1(20),10(22),11,13,17(21),18-hexaene-9,15,15-trione] | 
 |  | +++ (+++ is >600%) | > 6.00 | Cc1cccc(C)c1-c1cc2nc(n1)NS(=O)(=O)c1cccc(c1)C(=O)N(Cc1ccc(-c3csc(OC(C)C)n3)cc1)[C@H](CC(C)(C)C)CO2 [Compound 318] | 
+++ (+++ is >60%) | > 6.00 |  |  | Cc1cccc(C)c1-c1cc2nc(n1)NS(=O)(=O)c1cccc(n1)C(=O)N(CCCCC(C)(C)O)[C@H](CC(C)(C)C)CO2 [Compound 76, (11R)-6-(2,6-Dimethylphenyl)-11-(2,2-dimethylpropyl)-12-(5-hydroxy-5-methylhexyl)-9-oxa-2λ^6-thia-3,5,12,18,19-pentaazatricyclo[12.3.1.14,8]nonadeca-1(18),4(19),5,7,14,16-hexaene-2,2,13-trione] | 
++ (++ is 30-60%) | 4.52 to 5.52 |  |  | Cc1cccc(C)c1-c1cc2nc(n1)NS(=O)(=O)c1cc(n(C)n1)C(=O)N(Cc1ccccc1)[C@H](CC(C)(C)C)CO2 [Compound 926] | 
+++ (+++ is >60%) | > 6.00 |  |  | Cc1cccc(C)c1-c1cc2nc(n1)NS(=O)(=O)c1cccc(n1)C(=O)N(Cc1ccccc1)[C@H](CC(C)(C)C)CO2 [Compound 1085] | 
+++ (+++ is >60%) | > 6.00 |  |  | Cc1cccc(C)c1-c1cc2nc(n1)NS(=O)(=O)c1cccc(c1)C(=O)N(Cc1ccc(C(C)(C)O)cc1)[C@H](CC(C)(C)C)CO2 [Compound 1094] | 
